How the values were obtained:
[1] = test system: GPR84-Gαi2 fusion protein; assay: [35S]GTPγS binding, membranes expressing GPR84-Gαi2 fusion protein; type: biochemical, human; conditions: wild type GPR84-Gαi2 fusion, pertussis toxin 24 h
Excerpt: The only previous study[3] designed to explore the mode of binding of ligands to GPR84 employed a fusion protein[31],[32] in which the G protein Gαi1 was linked in-frame to the C-terminal tail of GPR84. […] These studies indicate that following pertussis toxin treatment of cells expressing the GPR84-Cys^352Ile Gαi2 fusion protein all agonist-induced binding of [^35S]GTPγS reflects incorporation of nucleotide into the receptor-linked G protein α subunit.
Membranes were generated from Flp-In T-REx HEK293 cells treated with 100 ng/mL doxycycline to induce expression of the receptor construct of interest. Cells were washed with ice-cold phosphate-buffered saline, removed from dishes by scraping and centrifuged at 3000 rpm for 5 min at 4 °C. Pellets were resuspended in TE buffer (10 mM Tris-HCl, 0.1 mM EDTA; pH 7.5) containing a protease inhibitor mixture (Roche Applied Science, West Sussex, UK) and homogenized with a 5 ml hand-held homogenizer. This material was centrifuged at 1500 rpm for 5 min at 4 °C and the supernatant was further centrifuged at 50000 rpm for 45 min at 4 °C. The resulting pellet was resuspended in TE buffer and protein content was assessed using a BCA protein assay kit (Pierce, Fisher Scientific, Loughborough, UK).
(§1) Initially, 5 μg of generated membrane protein was pre-incubated for 15 min at 25 °C in assay buffer (20 mM HEPES, 5 mM MgCl2; 160 mM NaCl; 1 μM GDP; 0.05% fatty acid-free bovine serum albumin; pH 7.5) containing the indicated ligand concentrations. […] The reaction was then initiated with addition of [^35S]GTPγS (50 nCi per tube), and the reaction was terminated after 45 minutes incubation at 30 °C by rapid filtration through GF/C glass filters using a 24-well Brandel cell harvester (Alpha Biotech, Glasgow, UK). Unbound radioligand was removed from filters by three washes with ice-cold phosphate buffered saline (pH 7.4) and filters were dried for 2–3 h at room temperature. Dried filters were added to 3 mL of Ultima Gold^TM XR (PerkinElmer Life Sciences, Beaconsfield, UK) and [^35S]GTPγS binding was determined by liquid scintillation spectrometry.

[2] = target: T1, Arg^172Ala GPR84-Cys^352Ile Gαi2 fusion protein (Homo sapiens, UniProt Q9NQS5, R172A); assay: [35S]GTPγS binding, Arg172Ala mutant fusion protein; type: biochemical
T1 construct: Cys352Ile Gαi2 (fusion partner, same polypeptide); expressed in transfected cells; host or cells: membranes of Flp-In T-REx 293 cells, doxycycline-induced
Excerpt: To try to identify how a MCFA might interact with GPR84 we turned to homology modelling studies. Although GPR84 is not closely related to the other GPCRs that respond to either short chain (FFA2, FFA3) or long chain (FFA1, FFA4) fatty acids[8],[9], in each of the other cases the carboxylate of the fatty acid is co-ordinated by one or more arginine residues located at or near the extracellular surface[12]–[14]. […] As we have highlighted recently[9] GPR84 and the β2-adrenoceptor are only distantly related whilst, of the currently available atomic level GPCR structures, the orexin OX1 receptor[34] has highest overall sequence identity (31%) with GPR84. We, therefore, generated and employed a new homology model of GPR84 based on the transmembrane domain architecture of the OX1 receptor (Fig. 6). However, because ECL2 of GPR84 is very similar in sequence to that of rhodopsin (Fig. 6a), with 43% residue identity over this region, we incorporated this knowledge into the modelling process. In the resulting hybrid model (Fig. 6a) Arg^172 within ECL2 is pointing into the potential binding cavity within the helical bundle. This was not the case when Nikaido et al.,[3] employed the β2-adrenoceptor-based model, probably because the ECL2 sequences of the β2-adrenoceptor and GPR84 have no relatedness. […] To assess this we mutated Arg^172 to Ala within the setting of the GPR84-Cys^352Ile Gαi2 fusion protein. […] Equivalent results were obtained in studies in which the Arg^172Ala mutation was introduced into the FLAG-hGPR84-eYFP construct (Fig. 7b).
FLAG-humanGPR84-Gαi2 fusion proteins were constructed by replacing eYFP within the FLAG-humanGPR84-eYFP-pcDNA5/FRT/TO construct with sequence corresponding to Gαi2 or Cys^352Ile Gαi2 using NotI and XhoI restriction enzymes. Site-directed mutagenesis to generate point mutants of GPR84 was performed according to the QuikChange method (Stratagene, Cheshire, UK). The identity of all constructs was verified by nucleotide sequencing.
as §1

[3] = set-up: method as in PMID 17164373; conditions: cited from earlier work
[4] = target: T2, human GPR84 (FLAG-hGPR84-eYFP) (Homo sapiens, UniProt Q9NQS5); assay: HTRF-based cAMP inhibition assay in Flp-In T-REx 293 cells expressing FLAG-hGPR84-eYFP; type: cell-based; conditions: 100 μM of each MCFA
T2 construct: expressed in transfected cells
Description: For the assay cells were plated at 5000 cells/well in low-volume 384-well plates. The ability of agonists to inhibit 1 μM forskolin-induced cAMP production was assessed following a co-incubation for 30 min with agonist compounds.

[5] = oral dosing to women of up to 1000 mg of indole-3-carbinol

T1 sequence (Q9NQS5 2-396 R172A): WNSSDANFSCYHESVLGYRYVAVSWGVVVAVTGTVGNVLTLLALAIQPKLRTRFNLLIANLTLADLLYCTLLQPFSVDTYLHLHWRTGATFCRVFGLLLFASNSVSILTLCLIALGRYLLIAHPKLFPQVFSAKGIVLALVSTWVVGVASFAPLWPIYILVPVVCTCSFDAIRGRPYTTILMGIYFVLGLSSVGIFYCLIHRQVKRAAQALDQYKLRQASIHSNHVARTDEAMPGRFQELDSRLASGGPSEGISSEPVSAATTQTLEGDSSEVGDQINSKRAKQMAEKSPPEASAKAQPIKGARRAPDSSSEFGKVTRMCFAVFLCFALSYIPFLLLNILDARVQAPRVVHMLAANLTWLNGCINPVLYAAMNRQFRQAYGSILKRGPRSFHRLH
T2 sequence (Q9NQS5 whole entry): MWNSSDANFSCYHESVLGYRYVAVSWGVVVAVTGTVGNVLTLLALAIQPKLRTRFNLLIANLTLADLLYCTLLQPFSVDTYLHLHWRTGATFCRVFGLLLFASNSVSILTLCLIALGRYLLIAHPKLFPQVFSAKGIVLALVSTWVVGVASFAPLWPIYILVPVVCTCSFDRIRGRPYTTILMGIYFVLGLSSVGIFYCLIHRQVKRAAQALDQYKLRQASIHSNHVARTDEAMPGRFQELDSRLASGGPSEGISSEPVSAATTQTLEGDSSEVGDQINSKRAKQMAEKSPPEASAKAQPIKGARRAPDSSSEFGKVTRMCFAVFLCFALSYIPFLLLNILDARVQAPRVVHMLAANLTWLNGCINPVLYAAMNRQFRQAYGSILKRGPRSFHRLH

| SMILES | response after pertussis toxin pre-treatment [1] | agonist response at Arg172Ala mutant [2] | clearance from plasma ([3]; after oral indole-3-carbinol) | peak plasma level of DIM [3, 5] | time to peak plasma level of DIM [3, 5] [h] | capacity to inhibit forskolin-amplified levels of cAMP, compared among MCFAs of chain length C9-C14 [4] |
| --- | --- | --- | --- | --- | --- | --- |
| c1ccc2c(Cc3c[nH]c4ccccc34)c[nH]c2c1 [DIM, 3,-3′-diindolylmethane] | all but eliminated | retained full activity | rapidly cleared | 500–600 ng/ml and approximately 2 μM | ≤ 2 |  |
| CCCCCCCCCC(=O)O [C10, decanoic acid] |  | no response |  |  |  | produced the largest effect |
